Reference: patent US8741836B2, “Polypeptides” (Novo Nordisk A/S, priority 2011, dated 2014)
Starred links: 1 amine or outer side, 2 acyl side, 3 side chain; linkers in the order of their positions; H or OH if unused. Positions of bridges follow the written chain, without caps; N, C: chain ends. Residues, ends and D or L forms follow the SMILES beside them. *: point of attachment. C20 diacid = O=C(O)CCCCCCCCCCCCCCCCCCC(=O)*; C18 diacid = O=C(O)CCCCCCCCCCCCCCCCC(=O)*; γGlu = O=C(O)[C@H](CCC(=O)[*:2])N[*:1]

Assay: Assay (III) ThT fibrillation assay for physical stability
Format: physicochemical
Conditions: for ThT pH 4.0 lag time: pH 4.0, ThT fibrillation assay
In short: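 Freshly prepared, pH-adjusted formulations with 1 μM ThT incubated at 37 °C under 960 rpm orbital shaking (1 mm), fluorescence (ex 444, em 485 nm) read every 20 min. […] Peptide content before and after measured by reverse-phase HPLC against pramlintide standard.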

| SMILES | ThT pH 4.0 lag time (physical stability in fibrillogenesis assay) | ThT pH 4.0 lag time |
| --- | --- | --- |
| CC[C@H](C)[C@H](NC(=O)[C@@H]1CCCN1C(=O)CNC(=O)[C@H](Cc1ccccc1)NC(=O)[C@H](CC(N)=O)NC(=O)[C@@H](NC(=O)[C@H](CO)NC(=O)[C@H](CO)NC(=O)[C@H](Cc1c[nH]cn1)NC(=O)[C@H](Cc1c[nH]cn1)NC(=O)[C@H](CC(C)C)NC(=O)[C@H](Cc1ccccc1)NC(=O)[C@H](CCC(=O)O)NC(=O)[C@H](C)NC(=O)[C@H](CC(C)C)NC(=O)[C@H](CCCNC(=N)N)NC(=O)[C@H](CCC(N)=O)NC(=O)[C@@H](NC(=O)[C@H](C)NC(=O)[C@@H]1CSSC[C@H](NC(=O)[C@H](CCCCN)NC(=O)CC[C@H](NC(=O)CCCCCCCCCCCCCCCCCCC(=O)O)C(=O)O)C(=O)N[C@@H](CC(N)=O)C(=O)N[C@@H]([C@@H](C)O)C(=O)N[C@@H](C)C(=O)N[C@@H]([C@@H](C)O)C(=O)N1)[C@@H](C)O)[C@@H](C)O)C(=O)N[C@@H](CC(C)C)C(=O)N1CCC[C@H]1C(=O)N1CCC[C@H]1C(=O)N[C@H](C(=O)N[C@@H](CC(N)=O)C(=O)N[C@H](C(=O)NCC(=O)N[C@@H](CO)C(=O)N[C@@H](CC(N)=O)C(=O)N[C@H](C(=O)N1CCC[C@H]1C(N)=O)[C@@H](C)O)C(C)C)[C@@H](C)O [Example 146, N-alpha-[(S)-4-Carboxy-4-(19-carboxynonadecanoylamino)butyryl]-[Glu14,His17,Thr21,Pro37]-pramlintide] ({C20 diacid-γGlu}-KCNTATCATQRLAEFLHHSSTNFGPILPPTNVGSNTP-NH2; disulfide 2-7) | >45 h | >45 h |
| CC[C@H](C)[C@H](NC(=O)[C@@H]1CCCN1C(=O)CNC(=O)[C@H](Cc1ccccc1)NC(=O)[C@H](CC(N)=O)NC(=O)[C@H](CC(N)=O)NC(=O)[C@H](CO)NC(=O)[C@H](CO)NC(=O)[C@H](Cc1c[nH]cn1)NC(=O)[C@H](Cc1c[nH]cn1)NC(=O)[C@H](CC(C)C)NC(=O)[C@H](Cc1ccccc1)NC(=O)[C@H](CCC(=O)O)NC(=O)[C@H](C)NC(=O)[C@H](CC(C)C)NC(=O)[C@H](CCCNC(=N)N)NC(=O)[C@H](CCC(N)=O)NC(=O)[C@@H](NC(=O)[C@H](C)NC(=O)[C@@H]1CSSC[C@H](NC(=O)[C@H](CCCNC(=N)N)NC(=O)CNC(=O)CC[C@H](NC(=O)CCCCCCCCCCCCCCCCCCC(=O)O)C(=O)O)C(=O)N[C@@H](CC(N)=O)C(=O)N[C@@H]([C@@H](C)O)C(=O)N[C@@H](C)C(=O)N[C@@H]([C@@H](C)O)C(=O)N1)[C@@H](C)O)C(=O)N[C@@H](CC(C)C)C(=O)N1CCC[C@H]1C(=O)N1CCC[C@H]1C(=O)N[C@H](C(=O)N[C@@H](CC(N)=O)C(=O)N[C@H](C(=O)NCC(=O)N[C@@H](CO)C(=O)N[C@@H](Cc1c[nH]cn1)C(=O)N[C@H](C(=O)N[C@@H](Cc1ccc(O)cc1)C(N)=O)[C@@H](C)O)C(C)C)[C@@H](C)O [Example 100, N-alpha-[(S)-4-Carboxy-4-(19-carboxynonadecanoylamino)butyryl]-Gly-[Arg1,Glu14,His17,His35]-pramlintide] ({C20 diacid-γGlu}-GRCNTATCATQRLAEFLHHSSNNFGPILPPTNVGSHTY-NH2; disulfide 3-8 (inferred)) |  | 26 h |
| CC[C@H](C)[C@H](NC(=O)[C@@H]1CCCN1C(=O)CNC(=O)[C@H](Cc1ccccc1)NC(=O)[C@H](CC(N)=O)NC(=O)[C@H](CC(N)=O)NC(=O)[C@H](CO)NC(=O)[C@H](CO)NC(=O)[C@H](Cc1c[nH]cn1)NC(=O)[C@H](Cc1c[nH]cn1)NC(=O)[C@H](CC(C)C)NC(=O)[C@H](Cc1ccccc1)NC(=O)[C@H](CCC(=O)O)NC(=O)[C@H](C)NC(=O)[C@H](CC(C)C)NC(=O)[C@H](CCCNC(=N)N)NC(=O)[C@H](CCC(N)=O)NC(=O)[C@@H](NC(=O)[C@H](C)NC(=O)[C@@H]1CSSC[C@H](NC(=O)[C@H](CCCCN)NC(=O)[C@H](Cc2c[nH]cn2)NC(=O)CC[C@H](NC(=O)CCCCCCCCCCCCCCCCC(=O)O)C(=O)O)C(=O)N[C@@H](CC(N)=O)C(=O)N[C@@H]([C@@H](C)O)C(=O)N[C@@H](C)C(=O)N[C@@H]([C@@H](C)O)C(=O)N1)[C@@H](C)O)C(=O)N[C@@H](CC(C)C)C(=O)N1CCC[C@H]1C(=O)N1CCC[C@H]1C(=O)N[C@H](C(=O)N[C@@H](CC(N)=O)C(=O)N[C@H](C(=O)NCC(=O)N[C@@H](CO)C(=O)N[C@@H](Cc1c[nH]cn1)C(=O)N[C@H](C(=O)N[C@@H](Cc1ccc(O)cc1)C(N)=O)[C@@H](C)O)C(C)C)[C@@H](C)O [Example 70, N-alpha-[(S)-4-Carboxy-4-(17-carboxyheptadecanoylamino)butyryl]-His-[Glu14,His17,His35]-pramlintide] ({C18 diacid-γGlu}-HKCNTATCATQRLAEFLHHSSNNFGPILPPTNVGSHTY-NH2; disulfide 3-8 (inferred)) |  | >45 h |
| CC[C@H](C)[C@H](NC(=O)[C@@H]1CCCN1C(=O)CNC(=O)[C@H](Cc1ccccc1)NC(=O)[C@H](CC(N)=O)NC(=O)[C@H](CC(N)=O)NC(=O)[C@H](CO)NC(=O)[C@H](CO)NC(=O)[C@H](Cc1c[nH]cn1)NC(=O)[C@H](Cc1c[nH]cn1)NC(=O)[C@H](CC(C)C)NC(=O)[C@H](Cc1ccccc1)NC(=O)[C@H](CCC(=O)O)NC(=O)[C@H](C)NC(=O)[C@H](CC(C)C)NC(=O)[C@H](CCCNC(=N)N)NC(=O)[C@H](CCC(N)=O)NC(=O)[C@@H](NC(=O)[C@H](C)NC(=O)[C@@H]1CSSC[C@H](NC(=O)[C@H](CCCCN)NC(=O)CC[C@H](NC(=O)CCCCCCCCCCCCCCCCCCC(=O)O)C(=O)O)C(=O)N[C@@H](CC(N)=O)C(=O)N[C@@H]([C@@H](C)O)C(=O)N[C@@H](C)C(=O)N[C@@H]([C@@H](C)O)C(=O)N1)[C@@H](C)O)C(=O)N[C@@H](CC(C)C)C(=O)N1CCC[C@H]1C(=O)N1CCC[C@H]1C(=O)N[C@H](C(=O)N[C@@H](CC(N)=O)C(=O)N[C@@H](Cc1c[nH]cn1)C(=O)NCC(=O)N[C@@H](CO)C(=O)N[C@@H](CC(N)=O)C(=O)N[C@H](C(=O)N[C@@H](Cc1ccc(O)cc1)C(N)=O)[C@@H](C)O)[C@@H](C)O [Example 116, N-alpha-[(S)-4-Carboxy-4-(19-carboxynonadecanoylamino)butyryl]-[Glu14,His17,His32]-pramlintide] ({C20 diacid-γGlu}-KCNTATCATQRLAEFLHHSSNNFGPILPPTNHGSNTY-NH2; disulfide 2-7) |  | >45 h |
| CC[C@H](C)[C@H](NC(=O)[C@@H]1CCCN1C(=O)CNC(=O)[C@H](Cc1ccccc1)NC(=O)[C@H](CC(N)=O)NC(=O)[C@H](CC(N)=O)NC(=O)[C@H](CO)NC(=O)[C@H](CO)NC(=O)[C@H](Cc1c[nH]cn1)NC(=O)[C@H](Cc1c[nH]cn1)NC(=O)[C@H](CC(C)C)NC(=O)[C@H](Cc1ccccc1)NC(=O)[C@H](CCC(=O)O)NC(=O)[C@H](C)NC(=O)[C@H](CC(C)C)NC(=O)[C@H](CCCNC(=N)N)NC(=O)[C@H](CCC(N)=O)NC(=O)[C@@H](NC(=O)[C@H](C)NC(=O)[C@@H]1CSSC[C@H](NC(=O)[C@H](CCCCN)NC(=O)[C@H](Cc2c[nH]cn2)NC(=O)CC[C@H](NC(=O)CCCCCCCCCCCCCCCCCCC(=O)O)C(=O)O)C(=O)N[C@@H](CC(N)=O)C(=O)N[C@@H]([C@@H](C)O)C(=O)N[C@@H](C)C(=O)N[C@@H]([C@@H](C)O)C(=O)N1)[C@@H](C)O)C(=O)N[C@@H](CC(C)C)C(=O)N1CCC[C@H]1C(=O)N1CCC[C@H]1C(=O)N[C@H](C(=O)N[C@@H](CC(N)=O)C(=O)N[C@H](C(=O)NCC(=O)N[C@@H](CO)C(=O)N[C@@H](Cc1c[nH]cn1)C(=O)N[C@H](C(=O)N[C@@H](Cc1ccc(O)cc1)C(N)=O)[C@@H](C)O)C(C)C)[C@@H](C)O [Example 66, N-alpha-[(S)-4-Carboxy-4-(19-carboxynonadecanoylamino)butyryl]-His-[Glu14,His17,His35]-pramlintide] ({C20 diacid-γGlu}-HKCNTATCATQRLAEFLHHSSNNFGPILPPTNVGSHTY-NH2; disulfide 3-8) |  | >45 h |
| CC[C@H](C)[C@H](NC(=O)[C@@H]1CCCN1C(=O)CNC(=O)[C@H](Cc1ccccc1)NC(=O)[C@H](CC(N)=O)NC(=O)[C@H](CC(N)=O)NC(=O)[C@H](CO)NC(=O)[C@H](CO)NC(=O)[C@H](Cc1c[nH]cn1)NC(=O)[C@H](CCCNC(=N)N)NC(=O)[C@H](CC(C)C)NC(=O)[C@H](Cc1ccccc1)NC(=O)[C@H](CCC(=O)O)NC(=O)[C@H](C)NC(=O)[C@H](CC(C)C)NC(=O)[C@H](CCCNC(=N)N)NC(=O)[C@H](CCC(N)=O)NC(=O)[C@@H](NC(=O)[C@H](C)NC(=O)[C@@H]1CSSC[C@H](NC(=O)[C@H](CCC(=O)O)NC(=O)[C@H](CCCNC(=N)N)NC(=O)[C@H](CCC(=O)O)NC(=O)CC[C@H](NC(=O)CCCCCCCCCCCCCCCCCCC(=O)O)C(=O)O)C(=O)N[C@@H](CC(N)=O)C(=O)N[C@@H]([C@@H](C)O)C(=O)N[C@@H](C)C(=O)N[C@@H]([C@@H](C)O)C(=O)N1)[C@@H](C)O)C(=O)N[C@@H](CC(C)C)C(=O)N1CCC[C@H]1C(=O)N1CCC[C@H]1C(=O)N[C@H](C(=O)N[C@@H](CC(N)=O)C(=O)N[C@H](C(=O)NCC(=O)N[C@@H](CO)C(=O)N[C@@H](CC(N)=O)C(=O)N[C@H](C(=O)N1CCC[C@H]1C(N)=O)[C@@H](C)O)C(C)C)[C@@H](C)O [Example 124, N-alpha-[(S)-4-Carboxy-4-(19-carboxynonadecanoylamino)butyryl]-Glu-Arg-[Glu1,Glu14,Arg17,Pro37]-pramlintide] ({C20 diacid-γGlu}-ERECNTATCATQRLAEFLRHSSNNFGPILPPTNVGSNTP-NH2; disulfide 4-9 (inferred); C-terminus assumed) | >45 h | >45 h |
